Patent publication US20250129070A1, “BIFUNCTIONAL ANDROGEN RECEPTOR COMPOUNDS” (priority 2023, published 2025)

Key:
[1] = tested on: VCaP cells; assay: VCaP growth inhibition assay; format: cell-based; conditions: 30 pM R1881, 9 days, CTG
Outline: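 VCaP cells in phenol red-free DMEM/5% CSS, pre-incubated 72 h, then stimulated with R1881 (final 30 pM) and treated with 1:5 serial dilutions (final 100 nM to 10 fM) for 9 days at 37 °C. Viability by CellTiter-Glo luminescence; IC50 from 4-parameter logistic fit of RLU vs concentration.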

[2] = tested on: AR / CBP ternary complex; assay: Ternary complex formation assay (sandwich ELISA, AR capture / CBP detection) in VCaP cell lysates; format: cell-based; conditions: 1.5 hours treatment, sandwich ELISA (AR capture, CBP or p300 detection)
Outline: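 VCaP cells (50K/well, 5% charcoal-stripped FBS, ≥3 days) treated with bifunctional compound for 1.5 h, then lysed 30 min at 4 °C. AR captured on anti-AR (AR 441) plates; bound CBP or p300 detected by rabbit mAb plus HRP secondary. QuantaRed chemifluorescence read at ex 570/em 585, immediately and at 5 and 15 min.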

| IC50 [1] [nM] | EC50 [2] [nM] | SMILES |
| --- | --- | --- |
| 0.1 to 1 | 1 to 10 | CC(=O)N1CCc2c(c(-c3cccc4cc(-c5ccc(CC6CC7(C6)CN(c6ncc(C(=O)NC8C(C)(C)C(Oc9ccc(C#N)c(Cl)c9)C8(C)C)cn6)C7)nc5)ncc34)nn2C2CCOCC2)C1 (stereo not drawn) [Compound 228, 2-[6-[[5-[8-(5-acetyl-1-tetrahydropyran-4-yl-6,7-dihydro-4H-pyrazolo[4,3-c]pyridin-3-yl)-3-isoquinolyl]-2-pyridyl]methyl]-2-azaspiro[3.3]heptan-2-yl]-N-[3-(3-chloro-4-cyano-phenoxy)-2,2,4,4-tetramethyl-cyclobutyl]pyrimidine-5-carboxamide] |
| 0.1 to 1 | < 1 | COc1cc(OC2C(C)(C)C(NC(=O)c3ccc(N4CCC(CN5CCC(n6nc(N7CCCc8cc(-c9cnn(C)c9)c(C)cc87)c7c6CCN(C(C)=O)C7)CC5)C(C)(C)C4)cc3)C2(C)C)ccc1C#N (stereo not drawn) [Compound 447, 4-[4-[[4-[5-acetyl-3-[7-methyl-6-(1-methylpyrazol-4-yl)-3,4-dihydro-2H-quinolin-1-yl]-6,7-dihydro-4H-pyrazolo[4,3-c]pyridin-1-yl]-1-piperidyl]methyl]-3,3-dimethyl-1-piperidyl]-N-[3-(4-cyano-3-methoxy-phenoxy)-2,2,4,4-tetramethyl-cyclobutyl]benzamide] |
| 1 to 100 | 1 to 10 | COc1cc(OC2C(C)(C)C(NC(=O)c3ccc(N4CCC(C5CCN(c6ccc(-c7cc8cccc(-c9nn(C%10CCOCC%10)c%10c9CN(C(C)=O)CC%10)c8cn7)cn6)CC5)CC4)cc3)C2(C)C)ccc1C#N (stereo not drawn) [Compound 267, 4-[4-[1-[5-[8-(5-acetyl-1-tetrahydropyran-4-yl-6,7-dihydro-4H-pyrazolo[4,3-c]pyridin-3-yl)-3-isoquinolyl]-2-pyridyl]-4-piperidyl]-1-piperidyl]-N-[3-(4-cyano-3-methoxy-phenoxy)-2,2,4,4-tetramethyl-cyclobutyl]benzamide] |
| 0.1 to 1 | < 1 | COc1cc(OC2C(C)(C)C(NC(=O)c3ccc(N4CC(N5CCC6(CCC(n7nc(N8CCCc9cc(-c%10cnn(C)c%10)c(C(F)F)cc98)c8c7CCN(C(C)=O)C8)CC6)C5)C4)cc3)C2(C)C)ccc1C#N (stereo not drawn) [Compound 401, 4-[3-[8-[5-acetyl-3-[7-(difluoromethyl)-6-(1-methylpyrazol-4-yl)-3,4-dihydro-2H-quinolin-1-yl]-6,7-dihydro-4H-pyrazolo[4,3-c]pyridin-1-yl]-2-azaspiro [4.5]decan-2-yl]azetidin-1-yl]-N-[3-(4-cyano-3-methoxy-phenoxy)-2,2,4,4-tetramethyl-cyclobutyl]benzamide] |
| 0.1 to 1 | < 1 | COc1cc(OC2C(C)(C)C(NC(=O)c3ccc(N4CCC(CCc5ccc(-c6cc7c(cc6C(F)F)N(c6nn(C8CCOCC8)c8c6CN(C(C)=O)CC8)CCC7)cc5)CC4)cc3)C2(C)C)ccc1C#N (stereo not drawn) [Compound 248, 4-[4-[2-[4-[1-(5-acetyl-1-tetrahydropyran-4-yl-6,7-dihydro-4H-pyrazolo[4,3-c]pyridin-3-yl)-7-(difluoromethyl)-3,4-dihydro-2H-quinolin-6-yl]phenyl]ethyl]-1-piperidyl]-N-[3-(4-cyano-3-methoxy-phenoxy)-2,2,4,4-tetramethyl-cyclobutyl]benzamide] |
| 0.1 to 1 | 1 to 10 | CC(=O)N1CCc2c(c(N3CCc4cc(-c5cnn(C)c5)c(C(F)F)cc43)nn2C2CCN(CC3CCN(c4ncc(C(=O)NC5C(C)(C)C(Oc6ccc(C#N)c(Cl)c6)C5(C)C)cn4)CC3)CC2)C1 (stereo not drawn) [Compound 13, 2-[4-[[4-[5-acetyl-3-[6-(difluoromethyl)-5-(1-methylpyrazol-4-yl)indolin-1-yl]-6,7-dihydro-4H-pyrazolo[4,3-c]pyridin-1-yl]-1-piperidyl]methyl]-1-piperidyl]-N-[3-(3-chloro-4-cyano-phenoxy)-2,2,4,4-tetramethyl-cyclobutyl]pyrimidine-5-carboxamide] |
| 0.1 to 1 | < 1 | CC(=O)N1CCc2c(c(N3CCCc4cc(-c5cnn(C)c5)c(C(F)F)cc43)nn2C2CCC(OC3CCN(c4ncc(C(=O)NC5C(C)(C)C(Oc6ccc(C#N)c(Cl)c6)C5(C)C)cn4)CC3)CC2)C1 (stereo not drawn) [Compound 338, 2-[4-[4-[5-acetyl-3-[7-(difluoromethyl)-6-(1-methylpyrazol-4-yl)-3,4-dihydro-2H-quinolin-1-yl]-6,7-dihydro-4H-pyrazolo[4,3-c]pyridin-1-yl]cyclohexoxy]-1-piperidyl]-N-[3-(3-chloro-4-cyano-phenoxy)-2,2,4,4-tetramethyl-cyclobutyl]pyrimidine-5-carboxamide] |
| 0.1 to 1 | < 1 | COc1cc(OC2C(C)(C)C(NC(=O)c3ccc(N4CCC(CCc5ccc(-c6cc7cccc(-c8nn(C9CCOCC9)c9c8CN(C(C)=O)CC9)c7cn6)cc5)CC4)cc3)C2(C)C)ccc1C#N (stereo not drawn) [Compound 254, 4-[4-[2-[4-[8-(5-acetyl-1-tetrahydropyran-4-yl-6,7-dihydro-4H-pyrazolo[4,3-c]pyridin-3-yl)-3-isoquinolyl]phenyl]ethyl]-1-piperidyl]-N-[3-(4-cyano-3-methoxy-phenoxy)-2,2,4,4-tetramethyl-cyclobutyl]benzamide] |
| 0.1 to 1 | < 1 | CC(=O)N1CCc2c(c(-c3cccc4cc(-c5cnn(CC6CC7(C6)CN(c6ncc(C(=O)NC8C(C)(C)C(Oc9ccc(C#N)c(Cl)c9)C8(C)C)cn6)C7)c5)ncc34)nn2C)C1 (stereo not drawn) [Compound 224, 2-[6-[[4-[8-(5-acetyl-1-methyl-6,7-dihydro-4H-pyrazolo[4,3-c]pyridin-3-yl)-3-isoquinolyl]pyrazol-1-yl]methyl]-2-azaspiro[3.3]heptan-2-yl]-N-[3-(3-chloro-4-cyano-phenoxy)-2,2,4,4-tetramethyl-cyclobutyl]pyrimidine-5-carboxamide] |

Further lines, the compound ahead of its results:

| SMILES | IC50 [1] [nM] | EC50 [2] [nM] |
| --- | --- | --- |
| CC(=O)N1CCc2c(c(N3CCCc4cc(-c5cnn(C)c5)c(C)cc43)nn2C2CCN(CC3CCN(c4ncc(C(=O)NC5C(C)(C)C(Oc6ccc(C#N)c(Cl)c6C)C5(C)C)cn4)CC3(C)C)CC2)C1 (stereo not drawn) [Compound 464, 2-[4-[[4-[5-acetyl-3-[7-methyl-6-(1-methylpyrazol-4-yl)-3,4-dihydro-2H-quinolin-1-yl]-6,7-dihydro-4H-pyrazolo[4,3-c]pyridin-1-yl]-1-piperidyl]methyl]-3,3-dimethyl-1-piperidyl]-N-[3-(3-chloro-4-cyano-2-methyl-phenoxy)-2,2,4,4-tetramethyl-cyclobutyl]pyrimidine-5-carboxamide] | ≤ 0.1 | < 1 |
| CC(=O)N1CCc2c(c(N3CCCc4cc(-c5cnn(C)c5)c(C(F)F)cc43)nn2C2CCN(CC#Cc3ncc(C(=O)NC4C(C)(C)C(Oc5ccc(C#N)c(Cl)c5)C4(C)C)cn3)CC2)C1 (stereo not drawn) [Compound 19, 2-[3-[4-[5-acetyl-3-[7-(difluoromethyl)-6-(1-methylpyrazol-4-yl)-3,4-dihydro-2H-quinolin-1-yl]-6,7-dihydro-4H-pyrazolo[4,3-c]pyridin-1-yl]-1-piperidyl]prop-1-ynyl]-N-[3-(3-chloro-4-cyano-phenoxy)-2,2,4,4-tetramethyl-cyclobutyl]pyrimidine-5-carboxamide] | 0.1 to 1 | < 1 |
| CC(=O)N1CCc2c(c(N3CCCc4cc(-c5cnn(C)c5)c(C(F)F)cc43)nn2CCN(C)c2ncc(C(=O)NC3C(C)(C)C(Oc4ccc(C#N)c(Cl)c4)C3(C)C)cn2)C1 (stereo not drawn) [Compound 45, 2-[2-[5-acetyl-3-[7-(difluoromethyl)-6-(1-methylpyrazol-4-yl)-3,4-dihydro-2H-quinolin-1-yl]-6,7-dihydro-4H-pyrazolo[4,3-c]pyridin-1-yl]ethyl-methyl-amino]-N-[3-(3-chloro-4-cyano-phenoxy)-2,2,4,4-tetramethyl-cyclobutyl]pyrimidine-5-carboxamide] | > 100 | > 100 |
| CC(=O)N1CCc2c(c(N3CCCc4cc(-c5ccn(C)n5)c(C(F)F)cc43)nn2C2CCN(CC3CCC(n4cc(C(=O)NC5C(C)(C)C(Oc6ccc(C#N)c(Cl)c6)C5(C)C)cn4)CC3)CC2)C1 (stereo not drawn) [Compound 241, 1-[4-[[4-[5-acetyl-3-[7-(difluoromethyl)-6-(1-methylpyrazol-3-yl)-3,4-dihydro-2H-quinolin-1-yl]-6,7-dihydro-4H-pyrazolo[4,3-c]pyridin-1-yl]-1-piperidyl]methyl]cyclohexyl]-N-[3-(3-chloro-4-cyano-phenoxy)-2,2,4,4-tetramethyl-cyclobutyl]pyrazole-4-carboxamide] | 0.1 to 1 | 1 to 10 |
| CC(=O)N1CCc2c(c(N3CCCc4cc(C#N)ccc43)nn2C2CC3(C2)CN(C(=O)C2CC4(C2)CN(c2ncc(C(=O)NC5C(C)(C)C(Oc6ccc(C#N)c(Cl)c6)C5(C)C)cn2)C4)C3)C1 (stereo not drawn) [Compound 220, 2-[6-[6-[5-acetyl-3-(6-cyano-3,4-dihydro-2H-quinolin-1-yl)-6,7-dihydro-4H-pyrazolo[4,3-c]pyridin-1-yl]-2-azaspiro[3.3]heptane-2-carbonyl]-2-azaspiro[3.3]heptan-2-yl]-N-[3-(3-chloro-4-cyano-phenoxy)-2,2,4,4-tetramethyl-cyclobutyl]pyrimidine-5-carboxamide] | 1 to 100 | < 1 |
| CC(=O)N1CCc2c(c(N3CCCc4cc(-c5cnn(C)c5)c(C(F)F)cc43)nn2C2CCN(C3CC4(C3)CN(c3ncc(C(=O)NC5C(C)(C)C(Oc6ccc(C#N)c(Cl)c6)C5(C)C)cn3)C4)CC2)C1 (stereo not drawn) [Compound 348, 2-[6-[4-[5-acetyl-3-[7-(difluoromethyl)-6-(1-methylpyrazol-4-yl)-3,4-dihydro-2H-quinolin-1-yl]-6,7-dihydro-4H-pyrazolo[4,3-c]pyridin-1-yl]-1-piperidyl]-2-azaspiro [3.3]heptan-2-yl]-N-[3-(3-chloro-4-cyano-phenoxy)-2,2,4,4-tetramethyl-cyclobutyl]pyrimidine-5-carboxamide] | ≤ 0.1 | < 1 |
